System: normal human lung fibroblasts
Test: Ribosomal profiling: translational efficiency in TGFβ-treated fibroblasts
Assay type: cell-based
Conditions: TGFβ-treated fibroblasts
Method: Ribosomal profiling allows for measurement of changes in transcription and translation on a genome-wide basis accompanying TGFβ-dependent transformation of fibroblasts to myofibroblasts. Ribosomal profiles of the TGFβ-treated fibroblasts from Example 1 (about 6×10^6 cells/10 cm plate) were prepared and analyzed for changes in translational efficiencies with respect to potential disease-associated cellular changes accompanying this TGFβ-induced transformation.
Briefly, cells were washed with cold PBS supplemented with cycloheximide and lysed with 1× mammalian cell lysis buffer for 10 minutes on ice. Lysates were clarified by centrifugation for 10 minutes at 14,000 rpm and supernatants were collected. Cell lysates were processed to generate ribosomal protected fragments and total mRNA according to the instructions included with the ARTseq Ribosome Profiling Kit (Illumina, San Diego, Calif.). Sequencing of total RNA (RNA) and of ribosome-protected fragments of RNA (RPF) was carried out using RNA-Seq methodology according to the manufacturer's instructions (Illumina). To analyze the ribosomal profiles, RNA-Seq reads were processed with tools from the FASTX-Toolkit (fastq_quality_trimmer, fastx_clipper and fastx_trimmer). Unprocessed and processed reads were evaluated for a variety of quality measures using FastQC, and processed reads were mapped to the human genome using TopHat (see, e.g., Trapnell et al., Bioinformatics 25:1105, 2009). Gene-by-gene assessment of the number of fragments strictly and uniquely mapping to the coding region of each gene was conducted using HTSeq-count, a component of the HTSeq package. […] Genes with low counts in either RPF or RNA were excluded from differential analyses. Pathway and network analyses of differential data were conducted using Ingenuity Pathway Analysis (IPA).

SMILES: CC(C=CC(=O)NO)=CC(C)C(=O)c1ccc(N(C)C)cc1 (stereo not drawn) [TSA, 7-[4-(dimethylamino)phenyl]-N-hydroxy-4,6-dimethyl-7-oxohepta-2,4-dienamide]
- renormalizing the translational profile of DNASE1L1 (ENSG00000013563): − (− = <0.9)
- renormalizing the translational profile of KITLG (ENSG00000049130): + (+ = 0.9 to 1.5)
- renormalizing the translational profile of ADAMTS6 (ENSG00000049192): − (− = <0.9)
- renormalizing the translational profile of LETMD1 (ENSG00000050426): − (− = <0.9)
- renormalizing the translational profile of PLEKHA5 (ENSG00000052126): − (− = <0.9)
- renormalizing the translational profile of EIF4B (ENSG00000063046): + (+ = 0.9 to 1.5)
- renormalizing the translational profile of RPL18 (ENSG00000063177): − (− = <0.9)
- renormalizing the translational profile of HIPK2 (ENSG00000064393): − (− = <0.9)
- renormalizing the translational profile of ASPM (ENSG00000066279): + (+ = 0.9 to 1.5)
- renormalizing the translational profile of RASSF1 (ENSG00000068028): − (− = <0.9)
- renormalizing the translational profile of PABPC1 (ENSG00000070756): − (− = <0.9)
- renormalizing the translational profile of RPL31 (ENSG00000071082): − (− = <0.9)
- renormalizing the translational profile of PLD1 (ENSG00000075651): − (− = <0.9)
- renormalizing the translational profile of EDN1 (ENSG00000078401): − (− = <0.9)
- renormalizing the translational profile of AURKA (ENSG00000087586): ++ (++ = 1.5 to 2.0)
- renormalizing the translational profile of EPB41L1 (ENSG00000088367): + (+ = 0.9 to 1.5)
- renormalizing the translational profile of RPL6 (ENSG00000089009): − (− = <0.9)
- renormalizing the translational profile of P2RX7 (ENSG00000089041): ++ (++ = 1.5 to 2.0)
- renormalizing the translational profile of KDM2B (ENSG00000089094): − (− = <0.9)
- renormalizing the translational profile of RPLP0 (ENSG00000089157): − (− = <0.9)
- renormalizing the translational profile of IGBP1 (ENSG00000089289): − (− = <0.9)
- renormalizing the translational profile of IRAK3 (ENSG00000090376): + (+ = 0.9 to 1.5)
- renormalizing the translational profile of PABPC4 (ENSG00000090621): − (− = <0.9)
- renormalizing the translational profile of FMO2 (ENSG00000094963): + (+ = 0.9 to 1.5)
- renormalizing the translational profile of ACOT7 (ENSG00000097021): − (− = <0.9)
- renormalizing the translational profile of ATP5D (ENSG00000099624): − (− = <0.9)
- renormalizing the translational profile of LGALS1 (ENSG00000100097): − (− = <0.9)
- renormalizing the translational profile of EIF3L (ENSG00000100129): − (− = <0.9)
- renormalizing the translational profile of RPL3 (ENSG00000100316): − (− = <0.9)
- renormalizing the translational profile of CEP192 (ENSG00000101639): − (− = <0.9)
- renormalizing the translational profile of AMMECR1 (ENSG00000101935): − (− = <0.9)
- renormalizing the translational profile of PLP2 (ENSG00000102007): − (− = <0.9)
- renormalizing the translational profile of EIF3E (ENSG00000104408): − (− = <0.9)
- renormalizing the translational profile of EEF1D (ENSG00000104529): − (− = <0.9)
- renormalizing the translational profile of C19orf53 (ENSG00000104979): − (− = <0.9)
- renormalizing the translational profile of GLTSCR2 (ENSG00000105373): + (+ = 0.9 to 1.5)
- renormalizing the translational profile of RAB3D (ENSG00000105514): ++ (++ = 1.5 to 2.0)
- renormalizing the translational profile of RPL18A (ENSG00000105640): − (− = <0.9)
- renormalizing the translational profile of COMP (ENSG00000105664): − (− = <0.9)
- renormalizing the translational profile of GLCCI1 (ENSG00000106415): + (+ = 0.9 to 1.5)
- renormalizing the translational profile of CORO2A (ENSG00000106789): − (− = <0.9)
- renormalizing the translational profile of GDF10 (ENSG00000107623): + (+ = 0.9 to 1.5)
- renormalizing the translational profile of RPL28 (ENSG00000108107): − (− = <0.9)
- renormalizing the translational profile of RPL19 (ENSG00000108298): − (− = <0.9)
- renormalizing the translational profile of RASD1 (ENSG00000108551): − (− = <0.9)
- renormalizing the translational profile of NAT9 (ENSG00000109065): − (− = <0.9)
- renormalizing the translational profile of RPL34 (ENSG00000109475): − (− = <0.9)
- renormalizing the translational profile of CRYAB (ENSG00000109846): − (− = <0.9)
- renormalizing the translational profile of GAPDH (ENSG00000111640): − (− = <0.9)
- renormalizing the translational profile of C12orf57 (ENSG00000111678): + (+ = 0.9 to 1.5)
- renormalizing the translational profile of MDFI (ENSG00000112559): − (− = <0.9)
- renormalizing the translational profile of HBEGF (ENSG00000113070): − (− = <0.9)
- renormalizing the translational profile of RPL24 (ENSG00000114391): − (− = <0.9)
- renormalizing the translational profile of EEF1B2 (ENSG00000114942): − (− = <0.9)
- renormalizing the translational profile of IFIH1 (ENSG00000115267): − (− = <0.9)
- renormalizing the translational profile of DPH5 (ENSG00000117543): − (− = <0.9)
- renormalizing the translational profile of PPL (ENSG00000118898): − (− = <0.9)
- renormalizing the translational profile of PLEKHG1 (ENSG00000120278): − (− = <0.9)
- renormalizing the translational profile of LIAS (ENSG00000121897): − (− = <0.9)
- renormalizing the translational profile of GPSM2 (ENSG00000121957): ++ (++ = 1.5 to 2.0)
- renormalizing the translational profile of RPL21 (ENSG00000122026): − (− = <0.9)
- renormalizing the translational profile of RPL5 (ENSG00000122406): − (− = <0.9)
- renormalizing the translational profile of INHBA (ENSG00000122641): − (− = <0.9)
- renormalizing the translational profile of CIT (ENSG00000122966): +++ (+++ = >2.0)
- renormalizing the translational profile of RPL23 (ENSG00000125691): − (− = <0.9)
- renormalizing the translational profile of LAMP5 (ENSG00000125869): − (− = <0.9)
